Tests used:
U2OS cells = assay: Cell-based viability/proliferation screen, DAPI staining and automated microscopy; parameters: species or system human; settings: for IC50: Homo sapiens, 10 pM to 10 μM, DAPI staining, read-out: IC50 from Screening Cell Based
Protocol: The biological effectiveness of the 39 compounds selected by re-screening was determined by measuring their half maximal inhibitory concentration (IC50) biochemically and in a cell-based system using the 384-well platform (Supplementary Table S2). […] We conducted the viability assay in duplicate on three separate occasions using a concentration range of 10 pM to 10 μM for each compound. Cell proliferation was determined using 4,6-diamidino-2-phenylindole staining and microscopy.
In addition, a second dark quencher ZEN (N,N-diethyl-4-(4-nitronaphthalen-1-ylazo)-phenylamine, absorption max.=532 nm) is placed between 9th and 10th base (Figure 2a). Initial screen, it was performed with yDna2.[22] Then, the top candidate compounds were tested on hDNA2. Identical reaction conditions were used for assaying the nuclease activity of yDna2 and hDNA2. […] The reaction buffer was 20 mM HEPES/NaOH, pH 7.5, 60 mM KCl, 1 mM DTT, 100 μg/ml bovine serum albumin and 0.05% Triton X-100. The nuclease assay was initiated by adding MgCl2 (3 mM final concentration). T5 nuclease was assayed in the buffer (50 mM potassium acetate, pH 7.9, 20 mM Tris-acetate, 10 mM magnesium acetate and 1 mM DTT) provided by the vendor (NEB, Ipswich, MA, USA). The concentration of the fluorogenic substrate was 0.1 μM. The optimal amount of yDna2, hDNA2 and T5 nuclease was determined by utilizing the Kaleidagraph software (Reading, PA, USA) to fit the data according to Michaelis Menton Kinetics (V=V0+Vmax*x/(Km+x)). […] All the compounds were dissolved in DMSO and DMSO alone was used as control; the final concentration of DMSO was at 3.33% for protein-based assay and 0.1% for cell-based assay. The Z’ value was calculated as previously described.[50] Cell proliferation was determined using 4,6-diamidino-2-phenylindole staining followed by high-throughput microscopy in a 384-well plate setup. In brief, cells were fixed with formaldehyde, washed and stained with 4,6-diamidino-2-phenylindole and the number of nuclei in each well counted by automated microscopy. The data were analyzed as described.[51]

[1] = target: T1, hDNA2, Bloom syndrome and RPA (Homo sapiens, UniProt P51530); assay: Reconstituted 5' DNA end resection assay (2-kb dsDNA degradation); format: biochemical; settings: hDNA2 5 nM, Bloom syndrome 5 nM, RPA 100 nM
T1 construct: made in house
T1 sequence (P51530 1-1060): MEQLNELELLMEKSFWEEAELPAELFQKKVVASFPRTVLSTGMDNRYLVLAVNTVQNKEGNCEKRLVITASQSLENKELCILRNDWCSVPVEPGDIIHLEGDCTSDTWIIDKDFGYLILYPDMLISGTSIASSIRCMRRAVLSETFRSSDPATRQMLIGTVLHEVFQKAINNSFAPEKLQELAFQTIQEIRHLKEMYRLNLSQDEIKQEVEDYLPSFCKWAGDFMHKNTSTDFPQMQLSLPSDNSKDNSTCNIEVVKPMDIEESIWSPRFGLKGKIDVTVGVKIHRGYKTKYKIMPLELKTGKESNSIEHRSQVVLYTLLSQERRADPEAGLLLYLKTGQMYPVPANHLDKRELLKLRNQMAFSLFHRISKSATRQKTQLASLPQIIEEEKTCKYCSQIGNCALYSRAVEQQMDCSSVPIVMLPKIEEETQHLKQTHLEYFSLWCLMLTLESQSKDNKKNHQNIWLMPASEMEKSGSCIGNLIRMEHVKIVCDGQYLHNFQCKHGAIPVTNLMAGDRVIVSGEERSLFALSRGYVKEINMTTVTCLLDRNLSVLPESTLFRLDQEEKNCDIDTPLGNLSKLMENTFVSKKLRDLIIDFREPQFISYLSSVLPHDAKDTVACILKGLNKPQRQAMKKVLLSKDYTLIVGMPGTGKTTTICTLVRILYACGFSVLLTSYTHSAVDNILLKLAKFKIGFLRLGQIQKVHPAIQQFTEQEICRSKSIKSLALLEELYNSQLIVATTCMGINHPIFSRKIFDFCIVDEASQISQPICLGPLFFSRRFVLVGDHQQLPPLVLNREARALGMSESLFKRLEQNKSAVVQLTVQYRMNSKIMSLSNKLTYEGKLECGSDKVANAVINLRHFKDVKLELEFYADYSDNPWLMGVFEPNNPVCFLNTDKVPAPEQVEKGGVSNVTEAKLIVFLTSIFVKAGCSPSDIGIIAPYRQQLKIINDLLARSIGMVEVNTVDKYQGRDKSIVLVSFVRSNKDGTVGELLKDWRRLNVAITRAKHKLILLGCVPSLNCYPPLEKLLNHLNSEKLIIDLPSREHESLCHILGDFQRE
Protocol: Figure 3 Validation of the top two inhibitors identified from the high-throughput screen. […] (b, c) Dose-response curves for indicated compounds, cell based (U2OS cell line) (b) and in vitro (c). The IC50 value and the protein concentration used are indicated. Triple labeled substrate (0.1 μM) as in Figure 2a was used. The concentration range of inhibitors was 0.003–666.67 μM. […] The asterisks denote the radiolabel. Plotted are the average data from three independent experiments and the error bars represent 1 s.d.
Nuclease assays were performed in buffer R (20 mM Na-HEPES pH 7.5, 1 mM ATP, 0.1 mM DTT, 100 μg/ml bovine serum albumin, 0.05% Triton X-100, 2 mM MgCl2, 100 mM KCl) and contained 0.5 nM ends (2-kb substrate) or 5 nM ends (the ssDNA oligonucleotide PSOL6929) of DNA. Reactions containing Bloom syndrome also included an ATP regenerating system consisting of 10 mM creatine phosphate and 50 μg/ml creatine kinase. […] Gels were dried onto DEAE paper on top of Whatman filter paper (GE, Issaquah, WA, USA) and then analyzed in a BioRad Personal Molecular Imager FX phosphorimager. Band intensity was quantified using Image Lab software (Bio-Rad, Hercules, CA, USA). The fraction of DNA substrate digested was determined by measuring the amount of substrate remaining and normalizing to the total substrate in the negative control lane containing no protein.

SMILES	IC50 (U2OS cells)	Resection in the reconstituted system [1]	Effect of longer exposure on cells (U2OS cells; exposure >48 h)
O=C1C(=O)c2cc([N+](=O)[O-])ccc2-c2ccccc21 [NSC-5195242, 2-nitrophenanthrene-9,10-dione]	1000 nM	inhibited	
NC1=C(Br)C(=O)c2ncccc2C1=O [NSC-105808, 6-amino-7-bromoquinoline-5,8-dione]	2700 nM	inhibited	causes cell death
